From patent US9364479B2, “Use of a receptor-type kinase modulator for treating polycystic kidney disease” (SYMPHONY EVOLUTION, INC., priority 2010, dated 2016)

How the values were obtained:
Type in all cases: biochemical
ErbB2 = ErbB2 (Homo sapiens, UniProt P04626); test: Mechanism of action study / Ki determination; parameters: residues Q679-V1255 of human ErbB2, Proqinase; purchased Proqinase
Procedure: Enzymatic activity was measured by standard methods after dilution of the enzyme-inhibitor complex.

PKBβ = PKBβ (Homo sapiens, UniProt P31751); test: In vitro kinase inhibition screen
Procedure: (§1) Further screening was performed using the biochemical assay methods of Example 2. Additional description of the components and concentrations are summarized in Table 8, Table 9, and Table 10, below.

PKBα = PKBα (Homo sapiens, UniProt P31749); test: In vitro kinase inhibition screen
Procedure: as §1

Clk1 = Clk1 (Homo sapiens, UniProt P49759); test: In vitro kinase inhibition screen
Procedure: as §1

Fes = Fes (Homo sapiens, UniProt P07332); test: In vitro kinase inhibition screen
Procedure: as §1

CK2 = CK2 (Homo sapiens, UniProt P68400); test: In vitro kinase inhibition screen
Procedure: as §1

CDK6 = CDK6 (Homo sapiens, UniProt Q00534); test: In vitro kinase inhibition screen
Procedure: as §1

MAPKAP2 = MAPKAP2 (Homo sapiens, UniProt P49137); test: In vitro kinase inhibition screen
Procedure: as §1

Rsk1 = Rsk1 (Homo sapiens, UniProt Q15418); test: In vitro kinase inhibition screen
Procedure: as §1

CDK7 = CDK7 (Homo sapiens, UniProt P50613); test: In vitro kinase inhibition screen
Procedure: as §1

MAPK1 = MAPK1 (Homo sapiens, UniProt P27361); test: In vitro kinase inhibition screen
Procedure: as §1

[1] = In vitro kinase inhibition screen
Procedure: as §1

ROCK II = ROCK II (Homo sapiens, UniProt O75116); test: In vitro kinase inhibition screen
Procedure: as §1

MKK6 = MKK6 (Homo sapiens, UniProt P52564); test: In vitro kinase inhibition screen
Procedure: as §1

Blk = Blk (Homo sapiens, UniProt P51451); test: In vitro kinase inhibition screen
Procedure: as §1

MAP4K5 = MAP4K5 (Homo sapiens, UniProt Q9Y4K4); test: In vitro kinase inhibition screen
Procedure: as §1

PDGFRβ = PDGFRβ (Homo sapiens, UniProt P09619); test: In vitro kinase inhibition screen
Procedure: as §1

CDK2 = CDK2 (Homo sapiens, UniProt P24941); test: In vitro kinase inhibition screen
Procedure: as §1

AMPK = test: In vitro kinase inhibition screen
Procedure: as §1

Clk2 = Clk2 (Homo sapiens, UniProt P49760); test: In vitro kinase inhibition screen
Procedure: as §1

SAPK4 = SAPK4 (Homo sapiens, UniProt O15264); test: In vitro kinase inhibition screen
Procedure: as §1

CDK1 = CDK1 (Homo sapiens, UniProt P06493); test: In vitro kinase inhibition screen
Procedure: as §1

Rsk3 = Rsk3 (Homo sapiens, UniProt Q15349); test: In vitro kinase inhibition screen
Procedure: as §1

CamKIV = CamKIV (Homo sapiens, UniProt Q16566); test: In vitro kinase inhibition screen
Procedure: as §1

PDGFR-α = PDGFR-α (Homo sapiens, UniProt P16234); test: In vitro kinase inhibition screen
Procedure: as §1

CSK = CSK (Homo sapiens, UniProt P41240); test: In vitro kinase inhibition screen
Procedure: as §1

JNK2α = JNK2α (Homo sapiens, UniProt P45984); test: In vitro kinase inhibition screen
Procedure: as §1

MKK4 = MKK4 (Homo sapiens, UniProt P45985); test: In vitro kinase inhibition screen
Procedure: as §1

JNK3α = JNK3α (Homo sapiens, UniProt P53779); test: In vitro kinase inhibition screen
Procedure: as §1

PKC-ξ = molecular target: T1, PKC-ξ; test: In vitro kinase inhibition screen
T1 construct: PKC-eta; Human, PanVera
Procedure: as §1

SGK = SGK (Homo sapiens, UniProt O00141); test: In vitro kinase inhibition screen
Procedure: as §1

JNK1α = JNK1α (Homo sapiens, UniProt P45983); test: In vitro kinase inhibition screen
Procedure: as §1

CDK3 = CDK3 (Homo sapiens, UniProt Q00526); test: In vitro kinase inhibition screen
Procedure: as §1

IKKβ = IKKβ (Homo sapiens, UniProt O14920); test: In vitro kinase inhibition screen
Procedure: as §1

Syk = Syk (Homo sapiens, UniProt P43405); test: In vitro kinase inhibition screen
Procedure: as §1

PRAK = PRAK (Homo sapiens, UniProt Q8IW41); test: In vitro kinase inhibition screen
Procedure: as §1

p70S6K = p70S6K (Homo sapiens, UniProt P23443); test: In vitro kinase inhibition screen
Procedure: as §1

MKK7β = MKK7β (Homo sapiens, UniProt O14733); test: In vitro kinase inhibition screen
Procedure: as §1

Yes = Yes (Homo sapiens, UniProt P07947); test: In vitro kinase inhibition screen
Procedure: as §1

PKC-γ = PKC-γ (Homo sapiens, UniProt P05129); test: In vitro kinase inhibition screen
Procedure: as §1

CamKII = test: In vitro kinase inhibition screen
Procedure: as §1

MEK1 = MEK1 (Homo sapiens, UniProt Q02750); test: In vitro kinase inhibition screen
Procedure: as §1

Sequence of ErbB2 (P04626 679-1255): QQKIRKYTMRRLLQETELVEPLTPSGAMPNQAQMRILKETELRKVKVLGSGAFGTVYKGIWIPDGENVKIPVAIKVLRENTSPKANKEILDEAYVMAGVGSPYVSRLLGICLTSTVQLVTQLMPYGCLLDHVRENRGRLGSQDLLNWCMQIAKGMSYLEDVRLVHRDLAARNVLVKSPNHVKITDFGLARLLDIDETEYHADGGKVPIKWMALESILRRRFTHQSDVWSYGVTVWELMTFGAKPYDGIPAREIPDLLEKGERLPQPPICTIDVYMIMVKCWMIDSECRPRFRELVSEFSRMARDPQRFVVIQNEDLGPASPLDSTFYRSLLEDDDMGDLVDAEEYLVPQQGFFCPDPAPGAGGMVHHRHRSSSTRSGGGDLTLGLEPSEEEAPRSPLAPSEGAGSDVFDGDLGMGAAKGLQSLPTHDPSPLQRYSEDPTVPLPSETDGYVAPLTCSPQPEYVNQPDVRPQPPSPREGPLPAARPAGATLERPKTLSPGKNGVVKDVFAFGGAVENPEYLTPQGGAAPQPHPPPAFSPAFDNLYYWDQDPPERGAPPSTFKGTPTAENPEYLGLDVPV
Sequence of p70S6K (P23443 whole entry): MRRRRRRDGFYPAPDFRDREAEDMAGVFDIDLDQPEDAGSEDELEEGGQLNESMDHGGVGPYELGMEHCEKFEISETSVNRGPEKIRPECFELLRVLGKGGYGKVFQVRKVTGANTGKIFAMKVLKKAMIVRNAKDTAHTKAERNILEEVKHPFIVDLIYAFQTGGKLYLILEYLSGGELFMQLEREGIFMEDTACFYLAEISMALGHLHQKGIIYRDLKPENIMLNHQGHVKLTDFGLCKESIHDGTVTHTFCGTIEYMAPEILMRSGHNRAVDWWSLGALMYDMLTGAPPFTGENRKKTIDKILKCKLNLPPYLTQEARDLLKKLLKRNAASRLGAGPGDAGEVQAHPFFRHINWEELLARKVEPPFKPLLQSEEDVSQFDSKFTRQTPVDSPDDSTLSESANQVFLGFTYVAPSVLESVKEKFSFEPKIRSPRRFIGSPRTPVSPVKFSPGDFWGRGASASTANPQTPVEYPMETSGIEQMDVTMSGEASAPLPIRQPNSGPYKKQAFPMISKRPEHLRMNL
Sequence of Rsk1 (Q15418 whole entry, species assumed): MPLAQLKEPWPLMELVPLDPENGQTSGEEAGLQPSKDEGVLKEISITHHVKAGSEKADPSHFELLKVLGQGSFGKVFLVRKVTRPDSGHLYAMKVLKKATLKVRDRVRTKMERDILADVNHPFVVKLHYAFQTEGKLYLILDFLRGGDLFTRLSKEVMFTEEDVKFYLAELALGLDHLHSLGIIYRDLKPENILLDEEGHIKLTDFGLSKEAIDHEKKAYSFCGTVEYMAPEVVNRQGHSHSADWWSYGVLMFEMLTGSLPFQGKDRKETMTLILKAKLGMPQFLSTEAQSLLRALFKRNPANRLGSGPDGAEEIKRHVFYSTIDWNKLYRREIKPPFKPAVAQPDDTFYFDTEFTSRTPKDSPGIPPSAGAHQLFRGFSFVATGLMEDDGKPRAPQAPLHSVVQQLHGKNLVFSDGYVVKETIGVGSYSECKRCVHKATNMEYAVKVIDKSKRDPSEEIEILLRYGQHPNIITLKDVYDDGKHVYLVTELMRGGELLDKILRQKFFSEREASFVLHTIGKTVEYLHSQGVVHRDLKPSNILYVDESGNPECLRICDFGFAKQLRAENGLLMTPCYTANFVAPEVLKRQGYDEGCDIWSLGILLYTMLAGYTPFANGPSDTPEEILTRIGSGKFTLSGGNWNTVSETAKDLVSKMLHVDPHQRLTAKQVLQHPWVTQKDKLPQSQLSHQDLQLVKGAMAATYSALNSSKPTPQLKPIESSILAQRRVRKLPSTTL
Sequence of SAPK4 (O15264 whole entry, species assumed): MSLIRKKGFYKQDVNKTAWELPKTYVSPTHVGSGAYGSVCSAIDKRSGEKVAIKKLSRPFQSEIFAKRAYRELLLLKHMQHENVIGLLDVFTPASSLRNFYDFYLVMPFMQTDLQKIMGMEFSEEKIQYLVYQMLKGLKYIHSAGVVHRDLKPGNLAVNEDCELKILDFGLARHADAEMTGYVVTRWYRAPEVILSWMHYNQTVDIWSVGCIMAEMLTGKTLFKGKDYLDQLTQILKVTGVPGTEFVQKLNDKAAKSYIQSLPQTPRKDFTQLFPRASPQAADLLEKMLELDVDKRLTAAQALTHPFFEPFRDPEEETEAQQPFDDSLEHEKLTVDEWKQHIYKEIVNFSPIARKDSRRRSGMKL
Sequence of Yes (P07947 whole entry, species assumed): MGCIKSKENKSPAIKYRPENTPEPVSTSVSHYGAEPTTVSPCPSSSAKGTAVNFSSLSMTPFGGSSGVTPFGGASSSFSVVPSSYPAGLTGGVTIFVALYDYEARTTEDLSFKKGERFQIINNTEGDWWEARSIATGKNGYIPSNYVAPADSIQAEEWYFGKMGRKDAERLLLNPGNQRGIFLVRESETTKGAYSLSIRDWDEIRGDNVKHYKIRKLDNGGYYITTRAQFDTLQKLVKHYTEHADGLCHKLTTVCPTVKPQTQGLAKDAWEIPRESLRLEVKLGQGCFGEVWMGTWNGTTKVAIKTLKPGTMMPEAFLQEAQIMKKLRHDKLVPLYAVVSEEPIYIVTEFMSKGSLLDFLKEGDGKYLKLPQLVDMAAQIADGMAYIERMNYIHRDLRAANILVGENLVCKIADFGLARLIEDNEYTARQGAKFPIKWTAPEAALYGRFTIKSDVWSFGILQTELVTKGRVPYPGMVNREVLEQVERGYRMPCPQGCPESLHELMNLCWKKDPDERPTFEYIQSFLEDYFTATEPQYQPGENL
Sequence of MKK4 (P45985 whole entry, species assumed): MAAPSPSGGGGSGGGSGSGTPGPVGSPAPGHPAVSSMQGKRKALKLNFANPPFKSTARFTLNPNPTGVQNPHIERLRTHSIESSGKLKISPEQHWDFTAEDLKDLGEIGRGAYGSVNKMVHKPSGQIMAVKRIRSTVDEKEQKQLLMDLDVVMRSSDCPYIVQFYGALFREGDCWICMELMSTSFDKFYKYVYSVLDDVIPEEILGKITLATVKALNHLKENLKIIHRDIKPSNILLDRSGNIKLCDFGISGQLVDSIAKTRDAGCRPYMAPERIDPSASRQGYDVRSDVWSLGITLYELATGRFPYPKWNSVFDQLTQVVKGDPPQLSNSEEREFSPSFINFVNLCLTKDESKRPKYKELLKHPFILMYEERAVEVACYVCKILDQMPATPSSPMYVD
Sequence of CamKIV (Q16566 whole entry, species assumed): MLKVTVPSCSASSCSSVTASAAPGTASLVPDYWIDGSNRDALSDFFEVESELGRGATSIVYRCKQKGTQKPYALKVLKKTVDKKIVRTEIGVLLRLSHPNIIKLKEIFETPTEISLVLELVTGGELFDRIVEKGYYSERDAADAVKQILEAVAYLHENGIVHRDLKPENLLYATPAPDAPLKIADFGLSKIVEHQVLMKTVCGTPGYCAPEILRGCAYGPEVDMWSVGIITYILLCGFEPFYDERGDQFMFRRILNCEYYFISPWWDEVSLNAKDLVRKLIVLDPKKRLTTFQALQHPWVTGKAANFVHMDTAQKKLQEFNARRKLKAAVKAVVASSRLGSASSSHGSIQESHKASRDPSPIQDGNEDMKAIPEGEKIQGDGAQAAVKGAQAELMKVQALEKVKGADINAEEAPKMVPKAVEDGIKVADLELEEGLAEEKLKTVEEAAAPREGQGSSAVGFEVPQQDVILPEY
Sequence of PRAK (Q8IW41 whole entry, species assumed): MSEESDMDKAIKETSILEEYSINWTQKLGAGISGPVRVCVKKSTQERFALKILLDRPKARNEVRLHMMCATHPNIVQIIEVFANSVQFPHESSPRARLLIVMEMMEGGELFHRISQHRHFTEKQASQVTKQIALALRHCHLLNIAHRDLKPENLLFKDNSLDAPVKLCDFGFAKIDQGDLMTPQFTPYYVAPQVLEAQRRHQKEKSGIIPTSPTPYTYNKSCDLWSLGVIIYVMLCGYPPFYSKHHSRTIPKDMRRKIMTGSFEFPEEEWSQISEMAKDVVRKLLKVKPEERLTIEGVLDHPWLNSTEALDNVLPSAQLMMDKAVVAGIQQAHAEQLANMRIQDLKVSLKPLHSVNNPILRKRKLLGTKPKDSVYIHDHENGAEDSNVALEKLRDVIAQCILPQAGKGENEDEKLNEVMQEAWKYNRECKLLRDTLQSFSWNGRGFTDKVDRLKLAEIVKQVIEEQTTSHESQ

COc1cc2c(Nc3ccc(Cl)c(Cl)c3F)ncnc2cc1OC[C@@H]1C[C@@H]2CN(C)C[C@@H]2C1 [XL-647, N-(3,4-dichloro-2-fluorophenyl)-7-({[(3aR,5r,6aS)-2-methyloctahydrocyclopenta[c]pyrrol-5-yl]methyl}oxy)-6-(methyloxy)quinazolin-4-amine]
ATP-Competitive (ErbB2): Yes
Ki (ErbB2): 3 nM
Reversible (ErbB2): Yes
IC50 (PKBβ): > 10000 nM
IC50 (PKBα): > 10000 nM
IC50 (Clk1): > 10000 nM
IC50 (Fes): 474 nM
IC50 (CK2): > 1000 nM
IC50 (CDK6): > 1000 nM
IC50 (MAPKAP2): > 10000 nM
IC50 (Rsk1): > 1000 nM
IC50 (CDK7): > 1000 nM
IC50 (MAPK1): > 1000 nM
IC50 [1]: > 1000 nM
IC50 (ROCK II): > 1000 nM
IC50 (MKK6): > 1000 nM
IC50 (Blk): 15 nM
IC50 (MAP4K5): > 1000 nM
IC50 (PDGFRβ): 346 ± 37 nM
IC50 (CDK2): > 1000 nM
IC50 (AMPK): > 1000 nM
IC50 (Clk2): > 10000 nM
IC50 (SAPK4): > 1000 nM
IC50 (CDK1): > 1000 nM
IC50 (Rsk3): > 1000 nM
IC50 (CamKIV): > 1000 nM
IC50 (PDGFR-α): 64.4 ± 7.2 nM
IC50 (CSK): 402 nM
IC50 (JNK2α): > 1000 nM
IC50 (MKK4): > 1000 nM
IC50 (JNK3α): > 1000 nM
IC50 (PKC-ξ): > 10000 nM
IC50 (SGK): > 10000 nM
IC50 (JNK1α): > 1000 nM
IC50 (CDK3): > 1000 nM
IC50 (IKKβ): > 1000 nM
IC50 (Syk): > 1000 nM
IC50 (PRAK): > 1000 nM
IC50 (p70S6K; list in excess of 1 μM): > 1000 nM
IC50 (p70S6K; list in excess of 10 μM): > 10000 nM
IC50 (MKK7β): > 1000 nM
IC50 (Yes): 1.1 nM
IC50 (PKC-γ): > 10000 nM
IC50 (CamKII): > 1000 nM
IC50 (MEK1): > 1000 nM
